{
  "source": "patent US20160015038A1",
  "about": "“TREATED CROP PLANTS OR PLANT FOOD PRODUCTS WITH DECREASED BACTERIAL VIABILITY AND METHODS AND APPARATUSES FOR MAKING THE SAME” (EP Technologies LLC, priority 2014, published 2016)",
  "key": {"E. coli (ATCC 35150)": {"tested_on": "E. coli (ATCC 35150)", "experiment": "E. coli viability on spinach leaves after plasma-activated mist exposure", "assay_type": "cell-based", "conditions": "no plasma mist", "description": "E. coli (ATCC 35150) cultures were grown to stationary phase in tryptic soy broth (TSB; Difco, Becton Dickinson, Franklin Lakes, N.J.). Aliquots of the prepared cultures were mixed into a volume of sterile Milli-Q water (Millipore, Billerica, Mass.) that yields an overall bacterial inoculum percentage of 2%. Thirty microliter aliquots of the bacterial culture were used to spot inoculate regions on the leaf surface of each leaf sample. Cultures were air dried on the leaf samples for 1 hour.\nAn Ultrasonic 360 humidifier (Safety 1st; Columbus, Ind.) was connected to plastic tubing and fed into a custom small-scale plasma generator. The plasma configuration consisted of two parallel brass plate electrodes that have an area of 40 mm×45 mm and thickness of 5 mm. Polyetherimide was used as the housing material for the electrodes. The upper electrode was connected to a high voltage power supply (1-20 kV) with operating parameters that can be adjusted while the lower electrode is grounded. The adjustable outlet of the setup released plasma-activated water mist onto inoculated leaves fixed 2 mm beneath the opening. Plasma-activated water mist was applied to the inoculated leaves at intervals from 15 seconds to 2 minutes. […]\nBacterial viability was […]. […] Data was analyzed using GraphPad Prism and InStat graphical and statistical software (GraphPad Software, Inc., La Jolla, Calif.). […]"}, "S. aureus": {"tested_on": "S. aureus", "experiment": "S. aureus viability on spinach leaves after plasma-activated mist exposure", "assay_type": "cell-based", "conditions": "no plasma mist"}},
  "data": [
    {"compound": "O=CC=Cc1ccccc1", "note": "[cinnamaldehyde]", "values": [
      {"measurement": "log10 reduction of E. coli caused by additive alone", "setting": "E. coli (ATCC 35150)", "result": "< 0.4"},
      {"measurement": "log10 reduction of S. aureus caused by additive alone", "setting": "S. aureus", "result": "less than 0.2"}
    ]}
  ]
}
